One assay addresses T1, CX3CR1 (Homo sapiens, UniProt P49238).
T1 construct: expressed in transfected cells; host or cells: human embryonic kidney suspension (HEKS) 293 cell line stably expressing chimeric G-protein Gαqi5; membranes
T1 sequence (P49238 1-355): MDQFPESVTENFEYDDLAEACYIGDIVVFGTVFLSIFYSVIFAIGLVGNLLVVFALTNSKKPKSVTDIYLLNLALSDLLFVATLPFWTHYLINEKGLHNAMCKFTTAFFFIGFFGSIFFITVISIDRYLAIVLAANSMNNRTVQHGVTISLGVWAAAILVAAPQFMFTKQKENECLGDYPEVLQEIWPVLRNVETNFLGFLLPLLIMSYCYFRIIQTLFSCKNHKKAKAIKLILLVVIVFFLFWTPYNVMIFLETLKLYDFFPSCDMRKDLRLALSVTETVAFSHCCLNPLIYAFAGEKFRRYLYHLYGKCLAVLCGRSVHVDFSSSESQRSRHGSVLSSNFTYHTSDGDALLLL
Description: [125I]-fractalkine competition receptor binding assay on hCX3CR1 membranes. Conditions: 25° C. for 24 h.

A further assay deals with T2, CXCR2 (Homo sapiens, UniProt P25025).
T2 construct: cultured under geneticin/G418 selection; membranes
T2 sequence (P25025 1-360): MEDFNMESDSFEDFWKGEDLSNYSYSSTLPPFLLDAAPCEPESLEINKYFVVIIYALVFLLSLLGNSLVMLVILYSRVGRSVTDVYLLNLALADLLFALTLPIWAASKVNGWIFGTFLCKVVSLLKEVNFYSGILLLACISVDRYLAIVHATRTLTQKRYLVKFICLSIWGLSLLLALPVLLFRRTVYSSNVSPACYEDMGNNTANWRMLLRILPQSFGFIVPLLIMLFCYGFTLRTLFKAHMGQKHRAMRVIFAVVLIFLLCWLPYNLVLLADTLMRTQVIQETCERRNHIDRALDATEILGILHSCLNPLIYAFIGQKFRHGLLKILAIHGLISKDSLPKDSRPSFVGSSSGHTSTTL
Put plainly: [125I]-hIL-8 competition binding (SPA) on membranes of cells expressing human CXCR2. To be noted: receptor binding, [125I]-hIL-8, RT for 4 h. As to the method: Recombinant human fractalkine (hCX3CL1) and recombinant human interleukin-8 (IL-8 or hCXCL8) were purchased from PeproTech Inc., UK. Recombinant [^125I]-fractalkine (human) and [^125I] hIL-8 with the specific activity of 2200 Ci/mmol, was purchased from NEN® Life Science Products, Inc., UK. Fluo4-AM was purchased from Molecular Probes, US. All other chemicals were of analytical grade.
Cells expressing human CXCR2 obtained from AstraZeneca Charnwood are cultured in EMEM containing Glutamax and supplemented with 10% FBS (from PAA, Austria), 1% non-essential amino acids (NEAA), 100 U/mL penicillin and 100 μg/mL streptomycin (PEST) and 500 μg/mL geneticin/G418.
Cells are grown at 37° C. and 5% CO2 and harvested at 60-80% confluence in buffer containing 10 mM Tris-HCl pH 7.4, 5 mM EDTA, 0.1 mg/mL bacitracin. The cells are centrifuged at 300×g for 10 min and the pellet is resuspended in harvesting buffer (10 mM Tris-HCl, pH 7.4, 5 mM ethylenediaminetetra-aceticacid (EDTA) and 0.1 mg/mL bacitracin), pooled and homogenised using a Dounce homogeniser. The homogenate is centrifuged in 48000×g for 10 min and resuspended in harvesting buffer using Ultra-Turrax T8. Membrane aliquots are stored at −80° C. Protein concentration was determined in microtiter plates as described by Harrington (1990, Anal. Biochem. 186, 285-287).
The [^125I]-hIL-8 competition binding studies are performed in singlicates in white clear bottom 96-well isoplates with a final volume of 200 μL and each well contains 150 pM [^125I]-hIL-8 (specific activity 2200 Ci/mmol), membrane-SPA preparation equivalent to 20 pM receptors and 1.5 mg SPA-beads in assay buffer [50 mM HEPES-KOH pH 7.4, 10 mM MgCl2, 1 mM EDTA, 0.5% (w/v) gelatin]. The test compounds were treated as above. The non-specific binding is determined in the presence of 500 nM unlabelled hIL-8. The agonist hIL-8 (a concentration-response curve from 3 pM to 30 nM), is used as reference compound at each test occasion. […] The binding reaction is started by addition of 140 μL membrane-SPA preparation, and the samples are incubated in dark at RT for 4 h. Assay plates are counted in a liquid scintillation counter (Wallac MicroBeta® TriLux 1450 from PerkinElmer, USA).

One may read the Ki as a measure of affinity in units of concentration, obtained from inhibition or displacement.

Description for CX3CR1: Recombinant human fractalkine (hCX3CL1) and recombinant human interleukin-8 (IL-8 or hCXCL8) were purchased from PeproTech Inc., UK. […] Fluo4-AM was purchased from Molecular Probes, US. All other chemicals were of analytical grade.
The complete human CX3CR1 cDNA (GenBank accession number U20350) was extracted from human brain mRNA (Superscript, Life Technologies) and ligated into pCR-Blunt II TOPO vector (InVitrogen). The insert corresponding hCX3CR1 was isolated and further subcloned into pcDNA3.1zeo. Plasmid DNA was prepared using Plasmid Midi Kit (Qiagen). […] A stable clone was generated utilizing zeocin (500 μg/mL) and hygromycin (100 μg/mL) selection. For further applications the cells were maintained in Dulbecco's modified Eagle's medium/Ham's nutrient mix F12 (DMEM/F12) containing pyridoxine and supplemented with 10% (v/v) fetal bovine serum, 2 mM L-glutamine, 100 U/ml penicillin and 100 mg/ml streptomycin, 250 μg/mL zeocin and 100 μg/mL hygromycin.
Ten concentrations (2 points/log unit) of the test compounds were pre-dissolved in DMSO and added to reach a final concentration of 1% (v/v) DMSO. The assay was initiated with the addition of membranes and incubated at 25° C. for 24 h. The reactions were stopped by rapid filtration through Whatman GF/B glass fiber filters pretreated with 0.3% polyethylimine and subsequent washing with ice-cold buffer (10 mM Hepes-KOH pH 7.4, 500 mM NaCl) using a Brandel receptor binding harvester. Scintillation cocktail was addedand radioactivity was determined in a Packard 2500TR liquid scintillation counter. (Perkin Elmer, USA)

Consider `CCC[C@H](CO)Nc1nc(SCc2ccccc2)nc2nc(N)sc12` [reference compound], for which the results for the inhibition constant Ki at CX3CR1 and on CXCR2 were 592 nM and 540 nM, respectively.

As for `CCC(Sc1nc(N[C@@H](CO)CC(C)C)c2sc(N)nc2n1)c1ccccc1` (stereo partly drawn), the Ki turned out to be 3.1 nM at CX3CR1 and 2760 nM on CXCR2.

For `CC(C)C[C@H](CO)Nc1nc(S[C@@H](C)c2cccc(C#N)c2)nc2nc(N)sc12`, the Ki is 14 nM at CX3CR1 and 4210 nM at CXCR2.

Turning to `CC(C)C[C@H](CO)Nc1nc(SCc2ccccc2Cl)nc2nc(N)sc12` [reference compound], the inhibition constant (Ki) was 51 nM at CX3CR1 and 1810 nM on CXCR2.

For `CC(C)C[C@H](CO)Nc1nc(SCc2cccc(C#N)c2)nc2nc(N)sc12` [reference compound], the Ki came to 156 nM at CX3CR1 and 1980 nM on CXCR2.

In the case of `CC(C)C[C@H](CO)Nc1nc(SC(C)c2ccccc2Cl)nc2nc(N)sc12` (stereo partly drawn), the Ki turned out to be 5.9 nM on CX3CR1 and 5650 nM at CXCR2.

As for `CC(C)C[C@H](CO)Nc1nc(SCc2ccccc2)nc2nc(N)sc12` [reference compound], the Ki on CX3CR1 stood at 48 nM; at CXCR2, 531 nM.

On to `CCC[C@H](CO)Nc1nc(S[C@@H](C)c2ccccc2)nc2nc(N)sc12`, for which the results for the Ki on CX3CR1 and on CXCR2 were 52 nM and 1140 nM, respectively.

With `CC(C)C[C@H](CO)Nc1nc(SC(C)c2ccccc2)nc2nc(N)sc12` (stereo partly drawn), the Ki at CX3CR1 was determined as 3.8 nM; at CXCR2 it was 3430 nM.

The values are drawn from patent publication US9440992B2, “5,7-disubstituted thiazolo[4,5-D]pyrimidines as chemokine inhibitors” (Acturum Life Science AB, priority 2005, dated 2016).
